Source: publication PMC12123366, “Effect of urea and squaramide IMPDH inhibitors on C. parvum: in vitro trial design impacts the assessment of drug efficacy” (International Journal for Parasitology: Drugs and Drug …, 2025)
Where two headings read alike, the source gives them in different places.

Legend:
[1] = CytoTox 96 Non-Radioactive Cytotoxicity Assay; format: cell-based, Human; conditions: human; HCT-8 cells, 10 µM
Description: (§1) HCT-8 cell lines (Human ileocecal adenocarcinoma) were purchased from The European Collection of Authenticated Cell Cultures (ECACC) under catalogue number No 90032006) and maintained with regular subculturing in a growth medium consisting in a RPMI 1640 medium supplemented with 1 mM sodium pyruvate, 2 mM l-glutamine, 10 % (vol/vol) of heat-inactivated fetal calf serum, 100 U/mL of penicillin and 100 μg/mL of streptomycin. Cells were grown in an incubator at 37 °C with 5 % (vol/vol) CO2 until monolayers reached 80–90 % confluency. Cells were cultivated in 96-well format plate for molecular analysis and in Lab-Tek™ Chamber Slides for microscopic analysis. 50,000 cells were seeded and incubated during 24 h (until confluency) before infection.
(§2) The compounds (2 mg/mL in DMSO) were diluted to 500 μM and serially diluted in maintenance medium. The cytotoxicity of the compounds was assessed using the CytoTox 96® Non-Radioactive Cytotoxicity Assay (Promega, G1790) in accordance with the manufacturer's protocol.
(§3) An initial screening experiment was conducted on the full library to evaluate the cytotoxicity effects on HCT-8 cells. Nitrophenylurea 12 was identified as being cytotoxic so was not progressed further (See Supporting Information). In total, 21 candidates were assessed for their ability to inhibit C. parvum replication at a concentration of 10 μM. Each compound was added at the start of the infection of HCT-8 cells (T0) and remained in the culture for 48 h post infection (hpi). Parasitic quantification was then performed using a molecular method (qPCR). Of the 21 compounds tested, nine were effective inhibitors, reducing parasite proliferation by 80 % or more (Fig. 6). A clear trend emerged with all of the benzyl-substituted ureas 6–10 displaying poor inhibitory activity, regardless of the attached heteroaryl substituent. […] Two exceptions to this were imidazole-containing analogues 18 and 19. […] Among the squaramide series, the results were highly dependent on the nature of the substituent, ranging from high (e.g. ketone 29, furan 32), medium (e.g. 3-pyrazole 30) to low (e.g. 4-pyrazole 31) anti-cryptosporidial activity.

C. parvum [2] = assay: Inhibition of C. parvum replication in infected HCT-8 cells, parasite quantification by qPCR; format: cell-based, Cryptosporidium parvum (Iowa strain) in human HCT-8 cells; conditions: for inhibition at 10 µM / IC50: Cryptosporidium parvum, HCT-8; for inhibition at 10 µM: added at start of infection (T0), 48 hpi, mean ± SD (n = 3 wells), read-out: inhibition rate of C. parvum replication; for inhibition at 10 µM / anti-cryptosporidial activity (in words): 10 μM; for anti-cryptosporidial activity (in words): added at T0, 48 hpi
Description: as §1
(§4) C. parvum oocysts of “Iowa” strain was purchased from Waterborne Inc. and stored in PBS at 4 °C. A ratio of one oocyst per cell was used to infect HCT-8 cell. Oocysts suspension was incubated with 10 % of a solution (vol/vol) containing 0.5 % sodium hypochlorite for 10 min at 4 °C. After a washing step by centrifugation at 1800g for 15 min at 4 °C, oocysts were incubated in acidified water (pH 2.4) containing 0.025 % (wt/vol) of trypsin, at 37 °C for 20 min, to trigger excystation (infectivity assay developed by [Keegan et al., 2003]). After a third centrifugation step at 1800 g for 10 min, oocysts were suspended in a maintenance medium. The maintenance medium consisted of RPMI 1640 medium with 2 mM l-glutamine, 5 mM glucose, 0.5 μM folic acid, 7 μM 4-amino-benzoic acid, 0.1 μM calcium pantothenate, 50 nM ascorbic acid, 2 % (vol/vol) heat inactivated fetal calf serum and 100 U/mL of streptomycin/penicillin. Before oocyst inoculation, the growth medium was switched with maintenance medium. Triggered oocysts were finally added on monolayers and incubated during 48 h at 37 °C in a 5 % (vol/vol) CO2 atmosphere.
as §2
The COWP gene (GenBank no. AF248743) was amplified by qPCR following the previously described protocol ([Guy et al., 2003]), and the parasitic concentration was determined using the standard range of C. parvum oocyst concentrations. Briefly, serial dilutions from a pure C. parvum oocyst suspension were made starting from a stock solution of 5 × 10^7 oocysts (4 × 10^5 – 2 × 10^5 – 1 × 10^5 – […]–2.5 × 10^3–1.25 × 10^3 oocysts) and the standard curve for quantifying parasites was created to obtain a correlation between Cq values and the Log of concentration.
At the end of the experiment, supernatants from the C. parvum-infected cell cultures were collected. The cell layers were then washed (1x PBS), detached using trypsin (0.25 %), and centrifuged (10,000×g, 10 min). The resulting cell pellet was re-suspended in 150–200 μL of sterile 1x PBS and stored at −20 °C for later DNA extraction. DNA extraction of C. parvum was performed using the Purelink™ Microbiome Purification Kit (Invitrogen™) following the manufacturer's protocol “Transport Media and Microbial Culture Samples” ([Invitrogen, 2015]).
FRePCR reactions were formulated to a volume of 25 μL and comprised of 1.25 μL of primers (10 μM), 0.05 μL probe (100 μM), 12.5 μL Master Mix 2X, LightCycler 480 Probes Master (ref. 04707494001, Roche), 4.95 μL H2O nuclease-free and 5 μL of DNA template. Quantitative PCR was run on a CFX96 real time PCR system (BioRad) with an initial step of activation (10 min 95 °C) following by 40 cycles with cycling conditions as follows: 95 °C for 10 s, 60 °C for 1 min. BioRad CFX manager software was used to analyse the data. Samples were considered negative if Cq ≥ 40.
A common way of defining a 50 % response is to use a mathematical model like the 4-parameter logistic model (4 PL) ([Sebaugh, 2011]). […]

C. parvum [3] = assay: Quantification of C. parvum development in HCT-8 cells by immunofluorescence microscopy; format: cell-based, Cryptosporidium parvum (Iowa strain) in human HCT-8 cells; conditions: for effect on distribution of parasite area: 7.5 μM or 15 μM, added at 30 hpi until 48 hpi; for reduction in parasite quantification: 7.5 μM, added at 30 hpi, until 48 hpi, fluorescence microscopy
Description: as §1, §4
After aspiration of the supernatant from the Nunc™ Lab-Tek™ Chamber slide wells, cells were rinsed with PBS 1X. A fixation step was then performed using methanol during 8 min at 4 °C. Cryptosporidium developmental forms were labelled with a polyclonal IgG antibodies reaction kit tagged with Cy3 (Sporo-Glo™, Waterborne Inc.) and oocysts were labelled with FL-Crypt-a-Glo™, a fluorescein-labelled mouse monoclonal antibody made to oocyst outer wall antigenic sites (epitopes) of C. parvum. Antibodies were 1/20th diluted and incubated on cells for 1 h at room temperature. DNA was labelled with Hoechst for 5 min at room temperature. Slides were then coverslipped with a no fading mounting medium (Waterborne Inc.) and observed with a Leica DMi8 microscope. Each dilution was performed in triplicate and, for each well, ten images were taken at 400× magnification. Parasite quantification was carried out automatically using the StarDist neural network, which was specifically trained to detect and quantify C. parvum parasites.
To confirm our initial findings, we employed an alternative method using immunofluorescence microscopy to quantify C. parvum development in the presence of inhibitors (Fig. S1). […] The results corroborated our initial screening data, confirming the high efficacy of all tested chloronitrophenyl urea analogues, except for imidazole derivatives 18 and 19.
To test this hypothesis, increasing concentrations of squaramide 32 (i.e. 0, 2, 4 and 8 μM) were applied at different infection times: at 0 hpi (hours post infection), to assess the impact on parasite invasion; at 4 hpi, to examine the effect on the early stages of intracellular development; and at 30 hpi, to evaluate the influence on late stage intracellular development. The microscopic images in Fig. 7 illustrate the effect of 32 when applied at the onset of infection and at 30 hpi. Using fluorescent antibodies, the intracellular development of C. parvum is highlighted by green fluorescence, which allows for quantification of the number of parasites per image.

HCT-8 cells = assay: CytoTox 96 Non-Radioactive Cytotoxicity Assay; format: cell-based, Human; conditions: 10 µM
Description: as §1, §2, §3

[4] = compounds at 0, 3, 6 and 9 μM added at t0 and left until 48 hpi, qPCR, read-out: IC50

Row | Compound | IC50 (C. parvum [2]; [4]) [µM] | viability at 10 µM [1] [%] | inhibition at 10 µM (C. parvum [2]; qPCR) [%] | further results
1 | CC(C)(NC(=O)NCc1ccccc1)c1cccc(-c2cc[nH]n2)c1 [Compound 6] | – | 97 | – | –
2 | CC(C)(NC(=O)NCc1ccccc1)c1cccc(-c2cn[nH]c2)c1 [Compound 7] | – | 96.7 | – | –
3 | CC(C)(NC(=O)NCc1ccccc1)c1cccc(-c2ccco2)c1 [Compound 8] | – | 95.9 | – | –
4 | CC(C)(NC(=O)NCc1ccccc1)c1cccc(-c2cccs2)c1 [Compound 9] | – | 95.4 | – | –
5 | CC(C)(NC(=O)NCc1ccccc1)c1cccc(-c2ccccc2)c1 [Compound 10] | – | 97.4 | – | –
6 | CC(C)(NC(=O)Nc1ccc(Cl)c([N+](=O)[O-])c1)c1cccc(-c2cn(C(c3ccccc3)(c3ccccc3)c3ccccc3)cn2)c1 [Compound 18] | – | 97.3 | ≤ 50 | –
7 | CC(C)(NC(=O)Nc1ccc(Cl)c([N+](=O)[O-])c1)c1cccc(-c2c[nH]cn2)c1 [Compound 19] | – | 97.4 | ≤ 50 | –
8 | CC(C)(Nc1c(Nc2ccc(Cl)c([N+](=O)[O-])c2)c(=O)c1=O)c1cccc(-c2cc[nH]n2)c1 [Compound 30, 3-((2-(3-(1H-Pyrazol-3-yl)phenyl)propan-2-yl)amino)-4-((4-chloro-3-nitrophenyl)amino)cyclobut-3-ene-1,2-dione] | – | 98.2 | – | anti-cryptosporidial activity (in words) (C. parvum [2]; qPCR): medium
9 | CC(C)(Nc1c(Nc2ccc(Cl)c([N+](=O)[O-])c2)c(=O)c1=O)c1cccc(-c2cn[nH]c2)c1 [Compound 31, (3-((2-(3-(1H-Pyrazol-4-yl)phenyl)propan-2-yl)amino)-2-((4-chloro-3-nitrophenyl)amino)-4-oxocyclobut-2-en-1-ylidene)oxonium] | – | – | – | Viability (HCT-8 cells): 96.97%; anti-cryptosporidial activity (in words) (C. parvum [2]; qPCR): low
10 | NC[C@@H]1O[C@H](O[C@H]2[C@@H](O)[C@H](O[C@@H]3[C@@H](O)[C@H](N)C[C@H](N)[C@H]3O[C@H]3O[C@H](CO)[C@@H](O)[C@H](O)[C@H]3N)O[C@@H]2CO)[C@H](N)[C@@H](O)[C@@H]1O [Paromomycin, reference compound] | – | – | – | IC50 (C. parvum [2]; previous experimentation based on qPCR, standard Cryptosporidium inhibitor in in vitro assays, read-out: mean IC50): 511 µM

Continued, in another order:

Row | IC50 (C. parvum [2]; [4]) [µM] | Compound | viability at 10 µM [1] [%] | inhibition at 10 µM (C. parvum [2]; qPCR) [%] | further results
11 | 5.44 | CCOC(=O)n1ccc(-c2cccc(C(C)(C)NC(=O)Nc3ccc(Cl)c([N+](=O)[O-])c3)c2)n1 [Compound 13] | 97.2 | 87.5 ± 6.4 | –
12 | 6.19 | CC(C)(NC(=O)Nc1ccc(Cl)c([N+](=O)[O-])c1)c1cccc(-c2cc[nH]n2)c1 [Compound 14] | 97.6 | 85.1 ± 3.8 | –
13 | 5.98 | CCOC(=O)n1cc(-c2cccc(C(C)(C)NC(=O)Nc3ccc(Cl)c([N+](=O)[O-])c3)c2)cn1 [Compound 15] | 97.5 | 71.7 ± 1.5 | –
14 | 5.32 | CC(C)(NC(=O)Nc1ccc(Cl)c([N+](=O)[O-])c1)c1cccc(-c2cn[nH]c2)c1 [Compound 16] | 96.4 | 64.3 ± 3.9 | –
15 | 4.69 | CC(C)(NC(=O)Nc1ccc(Cl)c([N+](=O)[O-])c1)c1cccc(-c2nccn2Cc2ccccc2)c1 [Compound 17] | 97.3 | 88.2 ± 1.1 | –
16 | 4.51 | CC(C)(NC(=O)Nc1ccc(Cl)c([N+](=O)[O-])c1)c1cccc(-c2nccs2)c1 [Compound 20] | 98.4 | 85.7 ± 2.2 | –
17 | 6.19 | CC(C)(NC(=O)Nc1ccc(Cl)c([N+](=O)[O-])c1)c1cccc(-c2ccco2)c1 [Compound 21] | 98.3 | 64 ± 1 | –
18 | 3.77 | CC(C)(NC(=O)Nc1ccc(Cl)c([N+](=O)[O-])c1)c1cccc(-c2cccs2)c1 [Compound 22] | 98.5 | 86.6 ± 2.6 | –
19 | 3.23 | CCOc1ncccc1-c1cccc(C(C)(C)NC(=O)Nc2ccc(Cl)c([N+](=O)[O-])c2)c1 [Compound 23] | 94.1 | 88 ± 3.5 | effect on distribution of parasite area (C. parvum [3]): successfully inhibits larger parasites; reduction in parasite quantification (C. parvum [3]): 32%
20 | 3.64 | CC(C)(NC(=O)Nc1ccc(Cl)c([N+](=O)[O-])c1)c1cccc(-c2cccnc2F)c1 [Compound 24] | 96.8 | 83.4 ± 1.5 | effect on distribution of parasite area (C. parvum [3]): dose-dependent effect; reduction in parasite quantification (C. parvum [3]): 10.5%
21 | 3.59 | CC(=O)c1cccc(C(C)(C)Nc2c(Nc3ccc(Cl)c([N+](=O)[O-])c3)c(=O)c2=O)c1 [Compound 29, 3-((2-(3-acetylphenyl)propan-2-yl)amino)-4-((4-chloro-3-nitrophenyl)amino)cyclobut-3-ene-1,2-dione] | 97.2 | 87.7 ± 1.7 | anti-cryptosporidial activity (in words) (C. parvum [2]; qPCR): high
